Measured values: patent US11267824B2, “Inhibitors of indoleamine 2,3-dioxygenase and/or tryptophan 2,3-dioxygenase” (IDORSIA PHARMACEUTICALS LTD, priority 2017, dated 2022)

Key:
[1] = target: Recombinant full-length human IDO1 (Homo sapiens (Human), UniProt P14902); assay: IDO1 enzymatic assay (IDO inhibitory activity); format: biochemical; conditions: 2 nM enzyme, 5 μM L-tryptophan, pH6.5, 30 min pre-incubation, NFK quantified by LCMS; mean values if measured multiple times; read-out: hIDO activity (IC50 in nM)
Method in brief: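 N-His-tagged enzyme from E. coli at 2 nM in 37.5 mM phosphate pH6.5 with ascorbate, methylene blue, catalase; compounds 10 μM–0.5 nM, 0.6% DMSO, pre-incubated 30 min RT, then 5 μM L-tryptophan for 30 min RT. NFK quantified by LCMS against d5-tryptophan; IC50 from duplicate four-parameter fit, means where repeated.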

[2] = target: Recombinant human TDO comprising amino acids 19-407 (Homo sapiens (Human), UniProt P48775); assay: TDO2 enzymatic assay (TDO inhibitory activity); format: biochemical; conditions: 15 nM enzyme, 200 μM L-tryptophan, pH7, 30 min pre-incubation, NFK quantified by LCMS; mean values if measured multiple times; read-out: hTDO activity (IC50 in nM)
Method in brief: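 His-tagged enzyme (15 nM, E. coli-expressed) in pH 7 phosphate buffer with ascorbate, catalase, BSA, Tween 20, 0.6% DMSO; 30 min RT pre-incubation with compound (10 μM–0.5 nM), then 200 μM L-tryptophan for 30 min RT. N′-formylkynurenine quantified by LCMS against deuterated tryptophan; IC50 by four-parameter fit, duplicates.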

Sequence of Recombinant human TDO comprising amino acids 19-407 (P48775 19-406 limits assumed): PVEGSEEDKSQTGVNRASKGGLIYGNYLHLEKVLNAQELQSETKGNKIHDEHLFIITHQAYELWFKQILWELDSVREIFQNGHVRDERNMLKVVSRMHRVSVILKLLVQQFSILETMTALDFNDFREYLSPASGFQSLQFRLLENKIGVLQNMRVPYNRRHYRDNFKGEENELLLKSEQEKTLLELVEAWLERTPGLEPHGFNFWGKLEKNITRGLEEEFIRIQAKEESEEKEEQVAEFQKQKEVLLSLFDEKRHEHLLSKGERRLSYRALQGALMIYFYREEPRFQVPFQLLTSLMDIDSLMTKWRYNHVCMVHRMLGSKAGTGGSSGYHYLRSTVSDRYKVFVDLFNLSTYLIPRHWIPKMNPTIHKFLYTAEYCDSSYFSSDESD
Sequence of Recombinant full-length human IDO1 (P14902 whole entry): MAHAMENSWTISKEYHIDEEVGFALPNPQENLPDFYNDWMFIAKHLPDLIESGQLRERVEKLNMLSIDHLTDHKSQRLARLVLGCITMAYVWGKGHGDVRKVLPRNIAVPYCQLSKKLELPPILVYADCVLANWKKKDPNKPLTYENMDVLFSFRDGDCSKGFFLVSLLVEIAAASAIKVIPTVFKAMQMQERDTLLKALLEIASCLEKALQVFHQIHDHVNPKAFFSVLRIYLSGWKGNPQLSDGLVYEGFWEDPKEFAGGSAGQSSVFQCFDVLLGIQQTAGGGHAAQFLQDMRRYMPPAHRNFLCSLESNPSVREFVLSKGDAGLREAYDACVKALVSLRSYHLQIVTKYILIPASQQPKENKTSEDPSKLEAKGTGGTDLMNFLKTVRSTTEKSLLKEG

Row | SMILES | IC50 [1] [nM] | IC50 [2] [nM]
1 | CC1(C)CCCC(CC(O)c2c(C3CC3)sc3cncn23)C1 (stereo not drawn) [Example 106, 1-(2-Cyclopropyl-imidazo[5,1-b]thiazol-3-yl)-2-(3,3-dimethyl-cyclohexyl)-ethanol] | 85.1 | 546
2 | OC(c1c(C2CC2)sc2cncn12)C12CC(c3ccccc3)(C1)C2 (racemic) [Example 191, rac-(2-Cycclopropyl-imidazo[5,1-b]thiazol-3-yl)-(3-phenyl-bicyclo[1.1.1]pent-1-yl)-methanol] | 28.6 | 1270
3 | CCNC1CCC(CC(O)c2c(C3CC3)sc3cncn23)CC1 (racemic) [Example 160, rac-1-(2-Cyclopropyl-imidazo[5,1-b]thiazol-3-yl)-2-(4-ethylamino-cyclohexyl)-ethanol] | 2370 | > 10200
4 | OC(CC1CCC(C(F)(F)F)CC1)c1c(C2CC2)sc2cncn12 (racemic) [Example 42, rac-1-(2-Cyclopropyl-imidazo[5,1-b]thiazol-3-yl)-2-(4-trifluoromethyl-cyclohexyl)-ethanol] | 92.2 | 520
5 | CCc1sc2cncn2c1C(O)C1CCCCC1 (racemic) [Example 96, rac-Cyclohexyl-(2-ethyl-imidazo[5,1-b]thiazol-3-yl)-methanol] | 10.5 | 39.9
6 | CC(C)(C)c1sc2cncn2c1C(O)C1CCCCC1 (racemic) [Example 11, rac-(2-(tert-Butyl)imidazo[5,1-b]thiazol-3-yl)(cyclohexyl)methanol] | 895 | 2050
7 | CCc1sc2cncn2c1[C@@H](O)CC1CCCCC1 [Example 100a, (S)-2-Cyclohexyl-1-(2-ethyl-imidazo[5,1-b]thiazol-3-yl)-ethanol] | 7.82 | 202
8 | CC1CCCCC1CC(O)c1c(C2CC2)sc2cncn12 (stereo not drawn) [Example 31, 1-(2-Cyclopropyl-imidazo[5,1-b]thiazol-3-yl)-2-(2-methyl-cyclohexyl)-ethanol] | 45.2 | 411
9 | OC(CC1CCCCC1)c1c(C2CC(F)(F)C2)sc2cncn12 (racemic) [Example 155, rac-2-Cyclohexyl-1-[2-(3,3-difluoro-cyclobutyl)-imidazo[5,1-b]thiazol-3-yl]-ethanol] | 485 | 1910
10 | OC(c1c(Cl)sc2cncn12)C1CCCCC1 (racemic) [Example 13, rac-(2-Chloroimidazo[5,1-b]thiazol-3-yl)(cyclohexyl)methanol] | 110 | 172
11 | OC(c1cccc(Cl)c1)c1c(C2CC2)sc2cncn12 (racemic) [Example 149, rac-(3-Chloro-phenyl)-(2-cyclopropyl-imidazo[5,1-b]thiazol-3-yl)-methanol] | 65.1 | 1820
12 | OC(c1c(C2CC2)sc2cncn12)C1CCCC1c1ccccc1 (stereo not drawn) [Example 83, (2-Cyclopropyl-imidazo[5,1-b]thiazol-3-yl)-(2-phenyl-cyclopentyl)-methanol] | 296 | 5200
13 | Cc1ccccc1CC(O)c1c(C2CC2)sc2cncn12 (racemic) [Example 61, rac-1-(2-Cyclopropyl-imidazo[5,1-b]thiazol-3-yl)-2-o-tolyl-ethanol] | 431 | 578
14 | OC(c1cnn(C2CCCC2)c1)c1c(C2CC2)sc2cncn12 (racemic) [Example 189, rac-(1-Cyclopentyl-1H-pyrazol-4-yl)-(2-cyclopropyl-imidazo[5,1-b]thiazol-3-yl)-methanol] | 112 | > 10200
15 | Cc1sc2cncn2c1C(O)c1ccc(N(C)C)cc1 (racemic) [Example 58, rac-(4-Dimethylamino-phenyl)-(2-methyl-imidazo[5,1-b]thiazol-3-yl)-methanol] | 1430 | > 10200

Further lines, results first:

Row | IC50 [1] [nM] | IC50 [2] [nM] | SMILES
16 | 131 | 131 | O[C@H](c1c(C2CCCC2)sc2cncn12)C1CCCCC1 [Example 9a, (S)-Cyclohexyl(2-cyclopentylimidazo[5,1-b]thiazol-3-yl)methanol]
17 | 23.9 | 15.8 | Cc1sc2cncn2c1[C@@H](O)C1(C)CCCC1 [Example 140a, (S)-(1-Methyl-cyclopentyl)-(2-methyl-imidazo[5,1-b]thiazol-3-yl)-methanol]
18 | 86.9 | 2270 | COc1ccc(C(O)c2c(C3CC3)sc3cncn23)cc1 (racemic) [Example 55, rac-(2-Cyclopropyl-imidazo[5,1-b]thiazol-3-yl)-(4-methoxy-phenyl)-methanol]
19 | 20 | 494 | O[C@@H](c1ccccc1)c1c(C2CC2)sc2cncn12 [Example 50a, (S)-(2-Cyclopropyl-imidazo[5,1-b]thiazol-3-yl)-phenyl-methanol]
20 | 16.5 | 375 | Cc1sc2cncn2c1[C@@H](O)CC1CCCCC1 [Example 5a, (S)-2-Cyclohexyl-1-(2-methyl-imidazo[5,1-b]thiazol-3-yl)-ethanol]
21 | 837 | 1070 | CC(C)Cc1sc2cncn2c1C(O)CC1CCCCC1 (racemic) [Example 99, rac-2-Cyclohexyl-1-(2-isobutyl-imidazo[5,1-b]thiazol-3-yl)-ethanol]
22 | 11.7 | 603 | CC(C)c1sc2cncn2c1[C@@H](O)C1CCCCC1 [Example 3a, (S)-Cyclohexyl-(2-isopropyl-imidazo[5,1-b]thiazol-3-yl)-methanol]
23 | 40.5 | 1830 | COC1CCCC(CC(O)c2c(C3CC3)sc3cncn23)C1 (stereo not drawn) [Example 114, 1-(2-Cyclopropyl-imidazo[5,1-b]thiazol-3-yl)-2-(3-methoxy-cyclohexyl)-ethanol]
24 | 29.4 | 228 | CCC1CCCC1C(O)c1c(C2CC2)sc2cncn12 (stereo not drawn) [Example 123, (2-Cyclopropyl-imidazo[5,1-b]thiazol-3-yl)-(2-ethyl-cyclopentyl)-methanol]
25 | 113 | 470 | OC(CC1CC(F)(F)C1)c1c(C2CC2)sc2cncn12 (racemic) [Example 21, rac-1-(2-Cyclopropyl-imidazo[5,1-b]thiazol-3-yl)-2-(3,3-difluoro-cyclobutyl)-ethanol]
26 | 5.99 | 190 | CC1(C)CC[C@H]([C@H](O)c2c(C3CC3)sc3cncn23)C1 [Example 47b, (S)-(2-Cyclopropyl-imidazo[5,1-b]thiazol-3-yl)-((S)-3,3-dimethyl-cyclopentyl)-methanol]
27 | 41.7 | 300 | CC1(CC(O)c2c(C3CC3)sc3cncn23)CCC1 (racemic) [Example 39, rac-1-(2-Cyclopropyl-imidazo[5,1-b]thiazol-3-yl)-2-(1-methyl-cyclobutyl)-ethanol]
28 | 561 | 1000 | Cc1sc2cncn2c1C(O)c1ccccc1 (racemic) [Example 162, rac-(2-Methyl-imidazo[5,1-b]thiazol-3-yl)-phenyl-methanol]
29 | 820 | 3100 | OC(CC1CCC(C2CCC2)CC1)c1c(C2CC2)sc2cncn12 (racemic) [Example 87, rac-2-(4-Cyclobutyl-cyclohexyl)-1-(2-cyclopropyl-imidazo[5,1-b]thiazol-3-yl)-ethanol]
30 | 39.7 | 138 | O[C@H](c1c(C2CCC2)sc2cncn12)C1CCCCC1 [Example 7a, (S)-(2-Cyclobutylimidazo[5,1-b]thiazol-3-yl)(cyclohexyl)methanol]
31 | 172 | 247 | CC1CC(C)(C)CC1C(O)c1c(C2CC2)sc2cncn12 (stereo not drawn) [Example 120, (2-Cyclopropyl-imidazo[5,1-b]thiazol-3-yl)-(2,4,4-trimethyl-cyclopentyl)-methanol]
32 | 44.9 | 697 | OC(CC1CCC1)c1c(C2CC2)sc2cncn12 (racemic) [Example 40, rac-2-Cyclobutyl-1-(2-cyclopropyl-imidazo[5,1-b]thiazol-3-yl)-ethanol]
33 | 6.45 | 2300 | O[C@H](c1c(C2CC2)sc2cncn12)[C@H]1CC[C@H](c2ccccc2)CC1 [Example 73a, (S)-(2-Cyclopropyl-imidazo[5,1-b]thiazol-3-yl)-(trans-4-phenyl-cyclohexyl)-methanol]
